# From PMC10485906, “Development of a Dihydroquinoline–Pyrazoline GluN2C/2D-Selective Negative Allosteric Modulator of the N-Methyl-D-aspartate Receptor” (ACS Chemical Neuroscience, 2023)
# “And” between values parts separate entries of the source, which are not always exact repeats. Identical values can stand only once. Marks after values point to notes of the source that are not given here.
# Columns and labels:
# [1] = Liver microsome stability, human; type: in vitro ADME; conditions: for microsomal CLint at 3 μM: human liver microsomes; for half-life at 3 μM / remaining at 0.5 h, 3 µM: liver microsomes; for half-life at 3 μM: incubation up to 30 min, read-out: liver microsome stability T1/2, human; for remaining at 0.5 h, 3 µM: over the assay time course (30 min), read-out: % remaining, human LMs
# Protocol: (§1) Human liver microsomes (HLMs, 20 mg/mL) and CD-1 mouse liver microsomes (MLMs, 20 mg/mL) were purchased from Xenotech. NADPH was purchased from Sigma-Aldrich and prepared in 10 mM stock solutions of distilled H2O (Invitrogen UltraPure). Verapamil and diphenhydramine were both purchased from Sigma-Aldrich and served as positive controls for HLM and MLM stability, respectively. Test compounds and positive controls were initially dissolved in DMSO to make 10 mM stock solutions. Sample solutions were then further diluted in 70% MeOH/H2O or 100% MeCN to 500 μM. Next, the reactions were prepared by mixing human or mouse liver microsomes (55 μL) with potassium phosphate buffer (100 mM, […]) in 1.5 mL Eppendorf tubes. The test compounds (6.6 μL of 500 μM solution) were subsequently added to the suspensions, and the reaction mixtures were incubated at 37 °C for 5 min. Afterward, the liver microsome reactions were initiated with 110 μL of 10 mM NADPH and further incubated at 37 °C for the designated time course of the study. This procedure provided experiments with a final volume of 1100 μL (<0.6% organic solvent content), a concentration for HLMs and MLMs of 1 mg/mL, and a final test compound concentration of 3 μM. Aliquots (100 μL) were removed from each reaction mixture in duplicate at 0, 5, 10, 15, and 30 min time intervals and quenched with 100 μL of cold internal standard solution (ISTD, 2 μM 7-ethoxy-d5-coumarin in MeOH or MeCN). Quenched aliquots were then centrifuged at 12 500 g for 5–10 min, and the resulting supernatants were withdrawn and placed in LC-MS vials to be analyzed by LC-MS/MS (Agilent G6460C QQQ MS coupled with an Infinity II 1260 HPLC). Each test compound was run in tandem with positive and negative control experiments for quality assurance. Positive control reactions were conducted at a final volume of 550 μL for a single run at each time point. Lastly, the negative control experiment was conducted with test compounds and liver microsomes in the absence of NADPH (150 μL) and analyzed at the 30 min time point.
# (§2) For both LM and plasma assays, each data point was analyzed in triplicate using between blank washes to avoid carry over and to equilibrate the column for the subsequent runs. Averages of these triplicates for individual compounds at each time point were then normalized to the data at 0 min, representing 100% of the test compound remaining or 0% metabolism. Half-lives (t1/2) were calculated by plotting ln of % test compound remaining versus time and performing linear regression to determine slope. Slope = −k and t1/2 = 0.693/k for first-order kinetics (see Figures S5 and S6 for a representative example).
# [2] = Liver microsome stability, mouse; type: in vitro ADME; conditions: CD-1, mouse; for half-life at 3 μM / remaining at 0.5 h, 3 µM: liver microsomes; for half-life at 3 μM: incubation up to 30 min, read-out: liver microsome stability T1/2, mouse; for remaining at 0.5 h, 3 µM: over the assay time course (30 min), read-out: % remaining, mouse LMs; for microsomal CLint at 3 μM: mouse liver microsomes
# Protocol: as §1, §2
# [3] = target: GluN1/GluN2C (Rattus norvegicus, UniProt Q00961); assay: Two-electrode voltage-clamp recordings, Xenopus laevis oocytes, GluN1/GluN2C; type: cell-based; set-up: GluN2B (NM_012574.1), GluN2C (NM_012575.3), and GluN2D (NM_022797.2) were provided by; expressed in transfected cells; host or cells: Xenopus laevis oocytes (cRNA injection); conditions: for I3 μM/Icontrol GluN2C: tested at 3 μM; for I3 μM/Icontrol GluN2C / I / I control GluN2C: 100 μM glutamate, 30 μM glycine; for I / I control GluN2C: tested at 10 μM (footnote b)
# GluN1/GluN2C, sequence (Q00961 20-1237, other chains not shown): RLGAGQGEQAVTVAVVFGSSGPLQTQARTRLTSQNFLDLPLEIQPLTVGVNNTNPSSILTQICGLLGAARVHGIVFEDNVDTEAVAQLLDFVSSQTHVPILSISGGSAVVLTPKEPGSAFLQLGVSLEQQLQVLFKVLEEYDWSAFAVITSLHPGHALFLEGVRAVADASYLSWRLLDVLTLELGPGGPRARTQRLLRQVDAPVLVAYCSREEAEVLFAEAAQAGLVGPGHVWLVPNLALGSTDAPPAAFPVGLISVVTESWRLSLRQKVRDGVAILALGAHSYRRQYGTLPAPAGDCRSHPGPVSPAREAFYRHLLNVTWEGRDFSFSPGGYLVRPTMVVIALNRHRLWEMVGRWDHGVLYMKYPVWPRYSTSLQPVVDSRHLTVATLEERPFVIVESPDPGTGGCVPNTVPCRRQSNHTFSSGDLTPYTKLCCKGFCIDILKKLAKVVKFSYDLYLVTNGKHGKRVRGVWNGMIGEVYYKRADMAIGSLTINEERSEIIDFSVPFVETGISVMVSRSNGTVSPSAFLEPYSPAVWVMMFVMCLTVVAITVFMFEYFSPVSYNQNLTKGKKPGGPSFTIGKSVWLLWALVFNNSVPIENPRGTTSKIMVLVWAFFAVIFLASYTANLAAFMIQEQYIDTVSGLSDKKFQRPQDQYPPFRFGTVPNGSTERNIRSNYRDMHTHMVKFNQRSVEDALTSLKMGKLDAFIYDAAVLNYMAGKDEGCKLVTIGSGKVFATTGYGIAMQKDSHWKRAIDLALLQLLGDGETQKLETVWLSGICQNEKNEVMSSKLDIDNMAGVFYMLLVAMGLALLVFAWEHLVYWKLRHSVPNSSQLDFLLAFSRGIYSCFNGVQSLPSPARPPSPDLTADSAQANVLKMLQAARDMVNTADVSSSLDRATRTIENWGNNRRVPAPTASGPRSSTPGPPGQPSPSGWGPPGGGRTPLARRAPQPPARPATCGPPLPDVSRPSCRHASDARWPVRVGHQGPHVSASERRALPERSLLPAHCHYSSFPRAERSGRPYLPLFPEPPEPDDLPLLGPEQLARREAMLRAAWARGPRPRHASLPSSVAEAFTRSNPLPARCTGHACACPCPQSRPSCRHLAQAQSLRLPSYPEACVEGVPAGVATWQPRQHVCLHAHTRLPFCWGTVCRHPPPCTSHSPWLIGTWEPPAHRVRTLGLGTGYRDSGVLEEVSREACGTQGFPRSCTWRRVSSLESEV
# Protocol: All target compounds were evaluated for NMDAR antagonism using two-electrode voltage-clamp recordings from Xenopus laevis oocytes coexpressing recombinant GluN1 and GluN2A-D subunits (Table 1).[32],[42],[33] All analogues were assessed as either a racemic (2b, 2e–2r) or diastereomeric (2d) mixture to simplify purification and streamline in vitro analysis. […] Moreover, as illustrated by the significant loss of NMDAR activity observed with nitrile 2e, the DQP allosteric site necessitated an H-bond donor/acceptor relationship at the carboxylate position. […] The loss of NMDAR activity observed with the trifluoro analogue 2j (Table S1) reinforced the necessity for an H-bond donor/acceptor relationship to maintain allosteric binding and established that fluorine substitution alone is ineffective. […] A single methyl substitution of the amide in compound 2q improved selectivity against GluN2A and had similar potency as 2a, whereas dual methyl substitution reduced potency (2r). We expect that this is likely due to the ability of the […] of the amide to accept hydrogen bonds while the amide can readily donate a proton.
# Unfertilized Xenopus laevis oocytes were obtained from Ecocyte (Austin, TX), or ovaries were purchased from Xenopus 1 (Dexter, MI) and oocytes prepared as previously described.[42],[47] Two-electrode voltage-clamp recordings were performed on oocytes expressing recombinant rat GluN1/GluN2A, GluN1/GluN2B, GluN1/GluN2C, or GluN1/GluN2D. cDNAs for rat GluN1-1a (referred to as GluN1; NCBI Reference Sequence NM_017010.2), GluN2A (NM_012573.4), GluN2B (NM_012574.1), GluN2C (NM_012575.3), and GluN2D (NM_022797.2) were provided by Dr. S. Heinemann from the Salk Institute, Dr. S. Nakanishi from Kyoto University, and Dr. P. Seeburg from the University of Heidelberg. Oocyte isolation, cRNA synthesis, and cRNA injections were performed as previously described.[32],[33],[47] Briefly, Xenopus laevis oocytes were injected with 5–10 ng of cRNA in RNase-free water with the GluN1:GluN2 ratio ranging from 1:1 to 1:5. Oocytes were incubated at 15–19 °C in Barth’s solution consisting of (in mM) 88 NaCl, 1 KCl, 2.4 NaHCO3, 10 HEPES, 0.82 MgSO4, 0.33 Ca(NO3)2, and 0.41 CaCl2 supplemented with 100 μg/mL gentamycin, 40 μg/mL streptomycin, and 50 μg/mL penicillin. Recordings were performed 2–4 days after injection with extracellular recording solution containing (in mM) 90 NaCl, 1 KCl, 10 HEPES, 0.5 BaCl2, and 0.01 EDTA at pH 7.4 adjusted with NaOH. To prevent a gradual increase in current response over the course of the experiment, some oocytes expressing GluN1/GluN2A were injected with 20–50 nL of 2–50 mM K-BAPTA. Concentration–response curves for test compounds were generated by applying a maximally effective concentration of glutamate (100 μM) and glycine (30 μM), followed by glutamate and glycine with variable concentrations of test compounds up to 30 μM. The test compounds were prepared as 20 mM stock solutions in DMSO and diluted to the final concentration in recording solution. The DMSO content was 0.05–0.5% (v/v). […] Methods for off-target analysis are given in the Supporting Information.
# Confidence intervals were determined for the log(IC50). The time course of relaxation during inhibitor application or deactivation following rapid removal of NMDA or glutamate was fitted by the equation [drawing 5] 2
SMILES,microsomal CLint at 3 μM [1] [µL/min/mg],half-life at 3 μM [1] [min],"remaining at 0.5 h, 3 µM [1] [%]",half-life at 3 μM [2] [min],"remaining at 0.5 h, 3 µM [2] [%]",microsomal CLint at 3 μM [2] [µL/min/mg],I3 μM/Icontrol GluN2C ([3]; mean ± SEM),"I3 μM/Icontrol GluN2C ([3]; mean ± SEM, listed as racemic 2i)",I / I control GluN2C ([3]; mean ± SEM),"% control GluN1/GluN2C ([3]; 1 µM compound, 100 µM glutamate, 30 µM glycine, mean ± SEM) [%]",selectivity for GluN2C-containing NMDARs compared to GluN2A- and GluN2B-containing receptors ([3]; abstract) [fold]
O=C(O)CCC(=O)N1N=C(c2c(-c3ccc(Cl)cc3)c3ccccc3[nH]c2=O)CC1c1ccc(Cl)cc1 (stereo not drawn) [2a],< 23,> 30,> 95,> 30,> 95,< 23,–,–,–,–,–
O=C(O)CC(F)(F)C(=O)N1N=C(c2c(-c3ccc(Cl)cc3)c3ccccc3[nH]c2=O)CC1c1ccc(Cl)cc1 (stereo not drawn) [2i],< 23,> 30,> 95,> 30,> 95,< 23,"13 ± 2.5% and 13 ± 2.5 ^b (2,12) %","13 ± 2.5 (2, 12) %",–,–,–
NC(=O)CC(F)(F)C(=O)N1N=C(c2c(-c3ccc(Cl)cc3)c3ccccc3[nH]c2=O)CC1c1ccc(Cl)cc1 (stereo not drawn) [2k],< 23,> 30,> 90,> 30,> 90,< 23,"22 ± 5.2 ^b (3,16) %",–,–,–,–
CCOC(=O)CC(F)(F)C(=O)N1N=C(c2c(-c3ccc(Cl)cc3)c3ccccc3[nH]c2=O)CC1c1ccc(Cl)cc1 (stereo not drawn) [2l],193,3.6,–,2.6,–,267,–,–,–,–,–
CC(C)OC(=O)CC(F)(F)C(=O)N1N=C(c2c(-c3ccc(Cl)cc3)c3ccccc3[nH]c2=O)CC1c1ccc(Cl)cc1 (stereo not drawn) [2m],173,4,–,2.9,–,239,–,–,–,–,–
O=C(CC(F)(F)C(=O)N1N=C(c2c(-c3ccc(Cl)cc3)c3ccccc3[nH]c2=O)CC1c1ccc(Cl)cc1)OCC1CC1 (stereo not drawn) [2n],289,2.4,–,1.8,–,385,–,–,–,–,–
CC(C)(C)COC(=O)CC(F)(F)C(=O)N1N=C(c2c(-c3ccc(Cl)cc3)c3ccccc3[nH]c2=O)CC1c1ccc(Cl)cc1 (stereo not drawn) [2o],187,3.7,–,4,–,173,–,–,87 ± 0.8%,–,–
O=C(CC(F)(F)C(=O)N1N=C(c2c(-c3ccc(Cl)cc3)c3ccccc3[nH]c2=O)CC1c1ccc(Cl)cc1)OCc1ccccc1 (stereo not drawn) [2p],105,6.6,–,7.2,–,96,–,–,–,–,–
CNC(=O)CC(F)(F)C(=O)N1N=C(c2c(-c3ccc(Cl)cc3)c3ccccc3[nH]c2=O)CC1c1ccc(Cl)cc1 (stereo not drawn) [2q],104,≤ 7,–,≤ 7,–,178,–,–,"16 ± 1.6 ^b (3, 20) %",–,–
CN(C)C(=O)CC(F)(F)C(=O)N1N=C(c2c(-c3ccc(Cl)cc3)c3ccccc3[nH]c2=O)CC1c1ccc(Cl)cc1 (stereo not drawn) [2r],165,≤ 7,–,–,–,231,–,–,"28 ± 2.2 ^b (4,20) %",–,–
O=C(O)CC(F)(F)C(=O)N1N=C(c2c(-c3ccc(Cl)cc3)c3ccccc3[nH]c2=O)C[C@H]1c1ccc(Cl)cc1 [(S)-(−)-2i],–,–,–,–,–,–,"13 ± 2.6 (3, 16) %",–,–,16 ± 2.9,> 100
